ChEMBL document CHEMBL4483862, “Open-source discovery of chemical leads for next-generation chemoprotective antimalarials” (2018)

System: Plasmodium berghei
Experiment: Luciferase/luciferin-expressing antifolate-resistant parasites were used to infect a culture of HepG2 cells that were pre-incubated with compounds. Infected hepatocytes emit light due to the luciferase reaction. Assay results are presented as the percent inhibition of light emission compared to control. […]
Assay type: functional
Conditions: sporozoite; for IC90: read-out: LUCIFERASE INFECTION ASSAY - IC90
[1] = read-out: LUCIFERASE INFECTION ASSAY - IC50

| SMILES | IC90 | also measured |
| --- | --- | --- |
| COc1cc(C(=O)N/N=C2\C(=O)Nc3ccc(C(C)C)cc32)cc(OC)c1OC | > 10 µM | IC50 (FFLUC_HILL_SLOPE 15.7, FFLUC_R_SQUARED 0.417, HEPG2TOX_HILL_SLOPE 3.31, HEPG2TOX_R_SQUARED 0.963, PBLUC_HILL_SLOPE 2.41, PBLUC_R_SQUARED 0.374, read-out: LUCIFERASE INFECTION ASSAY - IC50): 4.85 µM |
| COc1ccc(-c2cc(C(=O)N[C@@H](CCSC)c3nc4ccccc4[nH]3)c3ccccc3n2)cc1OC | 8.04 µM | IC50 (PBLUC_HILL_SLOPE 3.46, PBLUC_R_SQUARED 0.459, read-out: LUCIFERASE INFECTION ASSAY - IC50): 4.26 µM |
| COc1ccc(C(=O)OCC(=O)Nc2sccc2C(N)=O)cc1S(=O)(=O)N1CCCCC1C (stereo not drawn) | > 10 µM | IC50 (HEPG2TOX_HILL_SLOPE 5.31, HEPG2TOX_R_SQUARED 0.826, PBLUC_HILL_SLOPE 1.98, PBLUC_R_SQUARED 0.24, read-out: LUCIFERASE INFECTION ASSAY - IC50): 5.17 µM |
| COc1ccc(-c2cnc3ccc(NCc4ccc(F)cc4)nn23)cc1 | 3.94 µM | IC50 (HEPG2TOX_HILL_SLOPE 2.12, HEPG2TOX_R_SQUARED 0.979, PBLUC_HILL_SLOPE 9.57, PBLUC_R_SQUARED 0.534, read-out: LUCIFERASE INFECTION ASSAY - IC50): 3.13 µM |
| COC(=O)c1cc(C(=O)OCC(=O)NCCC2=CCCCC2)cc([N+](=O)[O-])c1 | > 10 µM | IC50 [1]: > 10 µM |
| Cc1c(Sc2ccccc2[N+](=O)[O-])c2ccccn2c1C(=O)c1ccc(Br)cc1 | > 10 µM | IC50 (FFLUC_HILL_SLOPE 12.7, FFLUC_R_SQUARED 0.226, PBLUC_HILL_SLOPE 11.1, PBLUC_R_SQUARED 0.312, read-out: LUCIFERASE INFECTION ASSAY - IC50): 9.73 µM |
| CCc1cc(=O)oc2cc(OCc3csc(N(C(C)=O)c4cccc(C)c4)n3)ccc12 | > 10 µM | IC50 [1]: > 10 µM |
| NS(=O)(=O)c1ccc(CCNC(=O)COC(=O)c2ccc3[nH]c4c(c3c2)CCCC4)cc1 | > 10 µM | IC50 [1]: > 10 µM |
| Cc1nc(N2CCc3ccccc32)c2c3c(sc2n1)CCC3 | 4.64 µM | IC50 (HEPG2TOX_HILL_SLOPE 9.23, HEPG2TOX_R_SQUARED 0.902, PBLUC_HILL_SLOPE 9.42, PBLUC_R_SQUARED 0.51, read-out: LUCIFERASE INFECTION ASSAY - IC50): 3.68 µM |
| O=C(Nc1ccc(Cl)cc1)Nc1nc(-c2cc(Cl)c(Cl)s2)cs1 | 1.77 µM | IC50 [1]: 1.13 µM |
| CC(C)(C)c1ccc(OCc2ccc(C(=O)N3CCN(CC(=O)NC4CC4)CC3)cc2)cc1 | > 10 µM | IC50 (HEPG2TOX_HILL_SLOPE 1.95, HEPG2TOX_R_SQUARED 0.886, PBLUC_HILL_SLOPE 11.8, PBLUC_R_SQUARED 0.642, read-out: LUCIFERASE INFECTION ASSAY - IC50): 8.43 µM |
| Cc1ccc(NC(=O)c2ccc(S(=O)(=O)N3CCOCC3)o2)cc1Cl | > 10 µM | IC50 [1]: > 10 µM |
| NC(Cc1ccc(F)cc1)c1csc(Nc2ccc(-c3ccccc3)nn2)n1 (stereo not drawn) | > 8.43 µM | IC50 (PBLUC_HILL_SLOPE 14.8, PBLUC_R_SQUARED 0.059, read-out: LUCIFERASE INFECTION ASSAY - IC50): 8.32 µM |
| C(=N\c1nc2ccccc2nc1N1CCOCC1)/N1CCN(C(c2ccccc2)c2ccccc2)CC1 | > 10 µM | IC50 [1]: > 10 µM |
| OC12CC3CC(C1)CC(c1cc(-c4ccccc4Cl)c4cc(Cl)ccc4n1)(C3)C2 | > 10 µM | IC50 [1]: > 10 µM |
| Nc1ncnc(N/N=C/c2ccc(C3=CCCC3)s2)c1[N+](=O)[O-] | > 10 µM | IC50 (FFLUC_HILL_SLOPE 0.804, FFLUC_R_SQUARED 0.918, PBLUC_HILL_SLOPE 0.696, PBLUC_R_SQUARED 0.659, read-out: LUCIFERASE INFECTION ASSAY - IC50): 0.463 µM |
| C(=C(c1nc2ccccc2s1)c1nc2ccccc2s1)c1ccc(N2CCOCC2)cc1 | 3.63 µM | IC50 [1]: 0.749 µM |
| O=[N+]([O-])c1ccc(NN=C(Cc2ccccc2)Cc2ccccc2)c(S(=O)(=O)Nc2ccccc2Cl)c1 | > 10 µM | IC50 (HEPG2TOX_HILL_SLOPE 2.02, HEPG2TOX_R_SQUARED 0.983, PBLUC_HILL_SLOPE 2.86, PBLUC_R_SQUARED 0.742, read-out: LUCIFERASE INFECTION ASSAY - IC50): 6.11 µM |
| O=C(NCCNc1ccc2ccccc2c1)c1cc2ccccc2nc1Cl | > 10 µM | IC50 (PBLUC_HILL_SLOPE 1.17, 2.29, PBLUC_R_SQUARED 0.341, 0.725, read-out: LUCIFERASE INFECTION ASSAY - IC50): 5.88 µM |
| COc1ccc(-c2nn(-c3ccccc3)cc2/C=N/Nc2ncc(C(F)(F)F)cc2Cl)cc1OC | 2.33 µM | IC50 (HEPG2TOX_HILL_SLOPE 13.4, HEPG2TOX_R_SQUARED 0.529, PBLUC_HILL_SLOPE 3.64, PBLUC_R_SQUARED 0.734, read-out: LUCIFERASE INFECTION ASSAY - IC50): 1.27 µM |

| SMILES | IC90 | also measured |
| --- | --- | --- |
| O=C(c1nn(-c2ccccc2)c(=O)c2ccccc12)N(CCCN1CCOCC1)Cc1cccs1 | > 10 µM | IC50 (PBLUC_HILL_SLOPE 4.06, PBLUC_R_SQUARED 0.124, read-out: LUCIFERASE INFECTION ASSAY - IC50): 8.65 µM |
| O=C(Nc1ccccn1)c1ccc(Cl)c(S(=O)(=O)N(Cc2ccccc2)c2ccccc2)c1 | > 10 µM | IC50 (PBLUC_HILL_SLOPE 2.32, PBLUC_R_SQUARED 0.355, read-out: LUCIFERASE INFECTION ASSAY - IC50): 5.62 µM |
| Cc1ccnc(SCc2cc(=O)n3nc(C)c(-c4ccc(F)cc4)c3[nH]2)n1 | > 8.65 µM | IC50 (FFLUC_HILL_SLOPE 7.05, FFLUC_R_SQUARED 0.398, PBLUC_HILL_SLOPE 2.1, PBLUC_R_SQUARED 0.785, read-out: LUCIFERASE INFECTION ASSAY - IC50): > 8.65 µM |
| Cc1nc(C(C)(C)C)nc2sc(C(=O)N(C)CC(=O)Nc3cccc(F)c3)c(C)c12 | 3.71 µM | IC50 (PBLUC_HILL_SLOPE 21.5, PBLUC_R_SQUARED 0.514, read-out: LUCIFERASE INFECTION ASSAY - IC50): 3.35 µM |
| Cc1cc(-n2c(-c3cccnc3Oc3ccccc3)n[nH]c2=S)ccc1Br | > 7.51 µM | IC50 (PBLUC_HILL_SLOPE 0.263, PBLUC_R_SQUARED 0.232, read-out: LUCIFERASE INFECTION ASSAY - IC50): > 7.51 µM |
| Cc1ccc(C)c(S(=O)(=O)Oc2ccccc2C(=O)OCC(=O)c2c(C)[nH]c3ccccc23)c1 | > 10 µM | IC50 (HEPG2TOX_HILL_SLOPE 0.276, HEPG2TOX_R_SQUARED 0.379, PBLUC_HILL_SLOPE 12.5, PBLUC_R_SQUARED 0.167, read-out: LUCIFERASE INFECTION ASSAY - IC50): > 10 µM |
| NC(Cc1ccc(C(F)(F)F)cc1)c1csc(Nc2cc(Oc3ccccc3)ncn2)n1 (stereo not drawn) | > 7.21 µM | IC50 (PBLUC_HILL_SLOPE 3.27, PBLUC_R_SQUARED 0.275, read-out: LUCIFERASE INFECTION ASSAY - IC50): 4.26 µM |
| C=CCn1c(C)cc(C2=NN=C(NC(C)(C)C)SC2)c1C | 0.38 µM | IC50 [1]: 0.366 µM |
| Cc1cc[n+](CC(=O)Nc2ccc(OC(F)F)cc2)c2ccccc12 | 1.27 µM | IC50 (HEPG2TOX_HILL_SLOPE 2.14, HEPG2TOX_R_SQUARED 0.242, PBLUC_HILL_SLOPE 15.8, PBLUC_R_SQUARED 0.258, read-out: LUCIFERASE INFECTION ASSAY - IC50): 1.1 µM |
| Cc1cc(C(=O)Cn2nnc3ccccc3c2=O)c(C)n1-c1ccccc1 | 0.0451 µM | IC50 (HEPG2TOX_HILL_SLOPE 3.03, HEPG2TOX_R_SQUARED 0.216, PBLUC_HILL_SLOPE 10.9, PBLUC_R_SQUARED 0.324, read-out: LUCIFERASE INFECTION ASSAY - IC50): 0.0369 µM |
| CCCSC(=S)c1c(C)nn(-c2ccccc2)c1O | > 11.3 µM | IC50 (PBLUC_HILL_SLOPE 10.5, PBLUC_R_SQUARED 0.318, read-out: LUCIFERASE INFECTION ASSAY - IC50): 10.1 µM |
| FC(F)(F)c1cccc(CNc2ncnc3sccc23)c1 | 6.39 µM | IC50 (HEPG2TOX_HILL_SLOPE 0.888, 1.51, HEPG2TOX_R_SQUARED 0.921, 0.862, PBLUC_HILL_SLOPE 1.26, 1.66, PBLUC_R_SQUARED 0.564, 0.617, read-out: LUCIFERASE INFECTION ASSAY - IC50): 1.42 µM |
| O=C(NCCC(=O)N1CCc2sccc2C1c1ccccc1)c1ccsc1 (stereo not drawn) | 5.51 µM | IC50 (PBLUC_HILL_SLOPE 101, PBLUC_R_SQUARED 0.289, read-out: LUCIFERASE INFECTION ASSAY - IC50): 5.39 µM |
| Cc1nnsc1-c1onc(C)c1C(=O)Nc1cc(Cl)cc(Cl)c1 | > 8.94 µM | IC50 (HEPG2TOX_HILL_SLOPE 2.99, HEPG2TOX_R_SQUARED 0.625, PBLUC_HILL_SLOPE 10.3, PBLUC_R_SQUARED 0.237, read-out: LUCIFERASE INFECTION ASSAY - IC50): 8.32 µM |
| COc1cc(C(=O)N/N=C2/C(=O)c3cccc4cccc2c34)cc(OC)c1OC | 3.67 µM | IC50 (HEPG2TOX_HILL_SLOPE 1.4, HEPG2TOX_R_SQUARED 0.956, PBLUC_HILL_SLOPE 15.6, PBLUC_R_SQUARED 0.526, read-out: LUCIFERASE INFECTION ASSAY - IC50): 3.19 µM |
| O=C(NCc1ccccc1OC1CCCC1)Nc1nnc(C2CC2)s1 | 7.55 µM | IC50 (HEPG2TOX_HILL_SLOPE 1.24, HEPG2TOX_R_SQUARED 0.927, PBLUC_HILL_SLOPE 4.07, PBLUC_R_SQUARED 0.516, read-out: LUCIFERASE INFECTION ASSAY - IC50): 4.4 µM |
| CN(Cc1ccccc1)S(=O)(=O)N1CCC(C(O)(c2ccccc2)c2ccccc2)CC1 | 9.51 µM | IC50 (PBLUC_HILL_SLOPE 2.67, PBLUC_R_SQUARED 0.571, read-out: LUCIFERASE INFECTION ASSAY - IC50): 4.18 µM |
| COc1cc(C(O)(c2nc3ccccc3s2)C(F)(F)F)c(OC)cc1N (stereo not drawn) | > 10 µM | IC50 (HEPG2TOX_HILL_SLOPE 2.34, HEPG2TOX_R_SQUARED 0.875, PBLUC_HILL_SLOPE 2.52, PBLUC_R_SQUARED 0.408, read-out: LUCIFERASE INFECTION ASSAY - IC50): 6.31 µM |
| O=C(OCN1C(=O)c2ccccc2C1=O)c1ccc(OCC2CCCO2)cc1 (stereo not drawn) | > 10 µM | IC50 [1]: > 10 µM |
